Experimental findings from US6117365A, “Phenolic acid amides of hydroxy-substituted benzylamines” (Haarmann & Reimer GmbH, priority 1997, dated 2000) are described below.

A short description of assay [1]: DPPH test for the removal of free radicals (activity as free-radical scavengers). Conditions: for EC50 (effective relative concentration, c(test compound)/c(DPPH), at which 50% of the free radical DPPH had been removed): DPPH 100 μmol/l in methanol, absorption at 515 nm read until the decrease was less than 2% per hour. Here is the method: The activity of example compounds 1 to 16 as free-radical scavengers was compared with that of a traditional free-radical scavenger. The DPPH (1,1-diphenyl-2-picrylhydrazyl) test for the removal of free radicals was used.
DPPH was dissolved in methanol to a concentration of 100 μmol/l. A series of dilutions of the example compounds, vitamin C, α-tocopherol, BHT, ferulic acid and of the naturally occurring N-(2-[4-hydroxyphenyl]ethyl)-4-hydroxy-3-methoxy-E-cinnamamide were prepared in methanol. Methanol was used as the control. 2500 μl of the DPPH solution were mixed with 500 μl of each test solution and the decrease in absorption at 515 nm was read until the decrease was less than 2% per hour. The activity of the test substances as free-radical scavengers was calculated using the following equation:
Activity as free-radical scavenger (%)=100-(absorption of the test
compounds)/(absorption of the control)×100.
The activity as free-radical scavengers (%) in a series of dilutions of test compounds was used to calculate, for each test compound, the effective relative concentration EC50 (based on the starting concentration of DPPH, EC=c (test compound)/c(DPPH)) of a test compound, at which 50% of the free radical DPPH had been removed.
On the technique in general: The DPPH test is a chemical assay of radical scavenging.

Assay [2] is described as follows: accelerated autoxidation of lipids by air using a RANCIMAT apparatus (activity as antioxidants). Conditions: for AOI (antioxidative index) = IP(with test solution)/IP(control sample): 0.05% of test substance, soy bean oil, 100° C., dry air stream 20 l/h. On the procedure: The activity of example compounds 1 to 16 as antioxidants was compared with that of traditional antioxidants. The test system used was the accelerated autoxidation of lipids by air with or without antioxidant using a RANCIMAT apparatus (RANCIMAT is a registered trade mark of Metrohm AG, Herisau, Switzerland).
The example compounds, vitamin C, α-tocopherol, BHT, ferulic acid and the naturally occurring N-(2-[4-hydroxyphenyl]-ethyl)-4-hydroxy-3-methoxy-E-cinnamamide were dissolved in methanol or acetone, and 100 μl of each test solution were added to a 3 g pre-prepared oil sample (soy bean oil, purified over alumina type N). In a control sample, only solvent was added. A constant, dry air stream (20 l/h) was blown through the oil sample, which contained the test solution and was heated to 100° C., and the volatile oxidation products (predominantly short-chain fatty acids such as formic or acetic acid) were collected in a receiver containing water. The conductivity of this aqueous solution was continuously measured and recorded. The oxidation of (unsaturated) fats proceeds only very slowly for some time and then suddenly increases. The time to the increase is referred to as the induction period (IP).
The following equation was used to calculate the antioxidative index (AOI):
AOI=IP(with test solution) /IP(control sample)

Where [3] appears, read: comparison in words with reference substances.

As for `COc1cc(CNC(=O)/C=C/c2ccc(O)c(O)c2)ccc1O` [Example 12, N-(4-Hydroxy-3-methoxybenzyl)-3,4-dihydroxy-E-cinnamamide], the “EC50 (effective relative concentration, c(test compound)/c(DPPH), at which 50% of the free radical DPPH had been removed)” value in assay [1] was found to be 0.089 mol/mol. Further, the “AOI (antioxidative index) = IP(with test solution)/IP(control sample)” value in assay [2] is 14.3.
The corresponding values for `O=C(CCc1ccc(O)c(O)c1)NCc1ccc(O)c(O)c1` [Example 9, N-(3,4-Dihydroxybenzyl)-3-(3,4-dihydroxyphenyl)-propanamide] are 0.07 mol/mol and 19.8.
Take `COc1cc(CCC(=O)NCc2ccc(O)c(O)c2)ccc1O` [Example 7, N-(3,4-Dihydroxybenzyl)-3-(4-hydroxy-3-methoxyphenyl)-propanamide]: the “EC50 (effective relative concentration, c(test compound)/c(DPPH), at which 50% of the free radical DPPH had been removed)” value in assay [1] came out at 0.094 mol/mol. For the same molecule, the “AOI (antioxidative index) = IP(with test solution)/IP(control sample)” value in assay [2] came to 7.7.
The corresponding values for `COc1cc(CNC(=O)/C=C/c2ccc(O)c(O)c2)cc(OC)c1O` [Example 13, N-(3,5-Dimethoxy-4-hydroxybenzyl)-3,4-dihydroxy-E-cinnamamide] are 0.1 mol/mol and 3.6.
Regarding `Cc1c(C)c2c(c(C)c1O)CCC(C)(CCCC(C)CCCC(C)CCCC(C)C)O2` (stereo not drawn) [α-Tocopherol, α-tocopherol, reference compound], the “EC50 (effective relative concentration, c(test compound)/c(DPPH), at which 50% of the free radical DPPH had been removed)” value in assay [1] is recorded as 0.250 mol/mol. Moreover, the “AOI (antioxidative index) = IP(with test solution)/IP(control sample)” value in assay [2] was determined as 5.05.
The corresponding values for `O=C(CCc1ccc(O)c(O)c1)NCc1ccc(O)c(O)c1O` [Example 10, N-(2,3,4-Trihydroxybenzyl)-3-(3,4-dihydroxyphenyl)-pronanamide] are 0.069 mol/mol and 24.6.
The like results for `COc1cc(/C=C/C(=O)NCc2ccc(O)c(O)c2O)ccc1O` [Example 3, N-(2,3,4-Trihydroxybenzyl)-4-hydroxy-3-methoxy-E-cinnamamide] were, in that order, 0.097 mol/mol and 11.7.
The like results for `COc1cc(CNC(=O)CCc2ccc(O)c(O)c2)ccc1O` [Example 8, N-(4-Hydroxy-3-methoxybenzyl)-3-(3,4-dihydroxyphenyl)-proyanamide] were, in that order, 0.119 mol/mol and 13.2.
For the molecule `O=C(/C=C/c1ccc(O)c(O)c1)NCc1ccc(O)c(O)c1O` [Example 14, N-(2,3,4-Trihydroxybenzyl)-3,4-dihydroxy-E-cinnamamide], in assay [1], the “EC50 (effective relative concentration, c(test compound)/c(DPPH), at which 50% of the free radical DPPH had been removed)” value amounted to 0.054 mol/mol. Also, in assay [2], the “AOI (antioxidative index) = IP(with test solution)/IP(control sample)” value came out at 27.5.
For the molecule `COc1cc(/C=C/C(=O)NCc2ccc(O)c(O)c2O)cc(OC)c1O` [Example 4, N-(2,3,4-Trihydroxybenzyl)-3,5-dimethoxy-4-hydroxy-E-cinnamamide], the “EC50 (effective relative concentration, c(test compound)/c(DPPH), at which 50% of the free radical DPPH had been removed)” value in assay [1] turned out to be 0.1 mol/mol. For the same molecule, the “AOI (antioxidative index) = IP(with test solution)/IP(control sample)” value in assay [2] is reported as 17.3.
The corresponding values for `O=C(/C=C/c1ccc(O)c(O)c1)NCc1ccc(O)c(O)c1` [Example 11, N-(3,4-Dihydroxybenzyl)-3,4-dihydroxy-E-cinnamamide] are 0.043 mol/mol and 14.9.
The corresponding values for `COc1cc(/C=C/C(=O)NCc2cc(O)c(O)c(O)c2)ccc1O` [Example 5, N-(3,4,5-Trihydroxybenzyl)-4-hydroxy-3-methoxy-E-cinnamamide] are 0.0097 mol/mol and 21.4.
Regarding `COc1cc(/C=C/C(=O)NCc2ccc(O)c(O)c2)ccc1O` [Example 1, N-(3,4-Dihydroxybenzyl)-4-hydroxy-3-methoxy-E-cinnamamide], the “EC50 (effective relative concentration, c(test compound)/c(DPPH), at which 50% of the free radical DPPH had been removed)” value in assay [1] came out at 0.1 mol/mol. For the same molecule, the “AOI (antioxidative index) = IP(with test solution)/IP(control sample)” value in assay [2] amounted to 11.41.
The corresponding values for `COc1cc(/C=C/C(=O)NCc2ccc(O)c(O)c2)cc(OC)c1O` [Example 2, N-(3,4-Dihydroxybenzyl)-3,5-dimethoxy-4-hydroxy-E-cinnamamide] are 0.097 mol/mol and 7.58.
The corresponding values for `O=C(Cc1ccc(O)c(O)c1)NCc1ccc(O)c(O)c1` [Example 16, N-(3,4-Dihydroxybenzyl)-3,4-dihydroxyphenylacetamide] are 0.053 mol/mol and 8.84.
Regarding `COc1cc(/C=C/C(=O)NCCc2ccc(O)cc2)ccc1O` [N-(2-[4-hydroxyphenyl]ethyl)-4-hydroxy-3-methoxy-E-cinnamamide, reference compound], the “EC50 (effective relative concentration, c(test compound)/c(DPPH), at which 50% of the free radical DPPH had been removed)” value in assay [1] is reported as 0.441 mol/mol. Moreover, the “action as free-radical scavenger, in words” value in assay [1] (setting [3]) is listed as “no better than α-tocopherol”. Further, in assay [2], the “AOI (antioxidative index) = IP(with test solution)/IP(control sample)” value turned out to be 1.41. Also, the “action as antioxidant, in words” value in assay [2] (setting [3]) is on record as “no better than α-tocopherol”.
`COc1cc(CNC(=O)Cc2ccc(O)c(O)c2)ccc1O` [Example 15, N-(4-Hydroxy-3-methoxybenzyl)-3,4-dihydroxyphenylacetamide]: in assay [1], the “EC50 (effective relative concentration, c(test compound)/c(DPPH), at which 50% of the free radical DPPH had been removed)” value turned out to be 0.105 mol/mol. Besides, the “AOI (antioxidative index) = IP(with test solution)/IP(control sample)” value in assay [2] came to 7.84.
In the case of `COc1cc(CC(=O)NCc2ccc(O)c(O)c2)ccc1O` [Example 6, N-(3,4-Dihydroxybenzyl)-4-hydroxy-3-methoxyphenylacetamide], the “EC50 (effective relative concentration, c(test compound)/c(DPPH), at which 50% of the free radical DPPH had been removed)” value in assay [1] was 0.103 mol/mol. In assay [2], the “AOI (antioxidative index) = IP(with test solution)/IP(control sample)” value is on record as 13.9.
As for `Cc1cc(C(C)(C)C)c(O)c(C(C)(C)C)c1` [BHT, 2,6-di-tert-butyl-4-methylphenol, reference compound], in assay [1], the “EC50 (effective relative concentration, c(test compound)/c(DPPH), at which 50% of the free radical DPPH had been removed)” value is 0.240 mol/mol. The “AOI (antioxidative index) = IP(with test solution)/IP(control sample)” value in assay [2] turned out to be 4.77.
On to `COc1cc(/C=C/C(=O)O)ccc1O` [Ferulic acid, ferulic acid, reference compound], for which, in assay [1], the “EC50 (effective relative concentration, c(test compound)/c(DPPH), at which 50% of the free radical DPPH had been removed)” value was 0.350 mol/mol. In assay [2], the “AOI (antioxidative index) = IP(with test solution)/IP(control sample)” value turned out to be 1.79.
The corresponding values for `O=C1O[C@H]([C@@H](O)CO)C(O)=C1O` [Vitamin C, L-ascorbic acid, reference compound] are 0.270 mol/mol and 1.17.
